Source: patent US20220241409A1, “WATER SOLUBLE ADJUVANT AND COMPOSITION CONTAINING SAME” (Sumitomo Dainippon Pharma Co., Ltd., priority 2019, published 2022)

How the values were obtained:
[1] = test system: HLA-A*02:01 transgenic mouse; assay: In vivo adjuvant activity, CTL induction with vaccine a, IFNγ ELISPOT (Test 7); settings: for CTL counts responsive to Peptide SEQ ID No. 5: compound added to vaccine a versus no compound, Example 2 325 ng per body, Reference example 12 225 ng per body, twice, one week interval
Description: The in vivo adjuvant activity of the compound prepared in Example 2 and the compound prepared in Reference example 12 was evaluated in the following procedure. To vaccine a was added the compound prepared in Example 2 or the compound prepared in Reference example 12 to prepare each vaccine, and the vaccine was administered to a HLA-A*02:01 transgenic mouse, and the adjuvant activity of each vaccine was evaluated by the method of testing antigen-specific CTL induction.
Specifically, vaccine a prepared like Test 6 was injected to mice intradermally at the tail base area in an amount for administering 300 μg of Compound of formula 4 per body and 225 μg of Peptide SEQ ID NO. 3 per body. Or, in the step of preparing vaccine a, the compound prepared in Example 2 was added to the diluted peptide solution to prepare a vaccine, and the prepared vaccine was injected to mice intradermally at the tail base area in an amount for administering 300 μg of Compound of formula 4 per body, 225 μg of Peptide SEQ ID No. 3 per body, and 325 ng of the compound prepared in Example 2 per body. Or, in the step of preparing vaccine a, the compound prepared in Reference example 12 was added to the diluted peptide solution to prepare a vaccine, and the prepared vaccine was injected to mice intradermally at the tail base area in an amount for administering 300 μg of Compound of formula 4 per body, 225 μg of Peptide SEQ ID No. 3 per body, and 225 ng of the compound prepared in Reference example 12 per body. The administrations were done twice, which had one week interval. One week after the final administration, the mice were sacrificed with CO2 gas. Splenocytes were harvested from spleens removed from the mice. In particular, an ELISPOT plate was treated with an anti-mouse-IFNγ antibody on the day before preparation of the splenocyte samples. On the next day, the plate was blocked by treatment with an RPMI 1640 medium with 10% FBS. To the blocked ELISPOT plate, the prepared splenocyte samples were added at 6.25×10^4 cells/well. […] Stained spots were counted on ImmunoSpot Analyzer.

[2] = test system: HLA-A*02:01 transgenic mouse; assay: In vivo adjuvant activity, CTL induction with vaccine a, IFNγ ELISPOT (Test 6); settings: for CTL counts responsive to Peptide SEQ ID No. 1 (IFNγ-producing cells) / CTL counts responsive to Peptide SEQ ID No. 5 (IFNγ-producing cells): compound added to vaccine a versus vaccine a, intradermal, Example 3 32.5 ng per body, Reference example 14 17.5 ng per body, one week later
Description: The in vivo adjuvant activity of the compound of Example 3 and the compound of Reference example 14 was evaluated in the following procedure. To a cocktail vaccine comprising Compound of formula 4 prepared in Reference example 9 and Peptide SEQ ID No. 3 prepared in Reference example 3 with a preliminarily-emulsified composition (hereinafter, referred to as “vaccine a”) was added the compound prepared in Example 3 or the compound prepared in Reference example 14 respectively to prepare each vaccine. The vaccine was administered to a HLA-A*02:01 transgenic mouse, and the adjuvant activity of each vaccine was evaluated by the method of testing antigen-specific cytotoxic T-lymphocyte (CTL) induction. The RMFPNAPYL (SEQ ID No. 1) in Compound of formula 4 and VLDFAPPGA (SEQ ID No. 5) in Peptide SEQ ID No. 3 correspond to antigen peptides derived from an HLA-A*02:01-restricted WT1 protein.
HLA-A*02:01 transgenic mouse (C57BL/6CrHLA-A2.1DR1) lacks mouse MHC, and instead expresses a chimeric HLA of a human MHC (HLA-A*02:01) and a mouse MHC (H-2D^b), and HLA-DRB1*01:01. The mouse can evaluate the pharmacological activity of immunotherapeutic agents including a peptide which induces CTLs in HLA-A*02:01-positive human (Eur J Immunol. 2004; 34: 3060-9). In addition, the mouse can also evaluate the induction of a helper peptide which can bind to a human HLA-DRB1*01:01 to induce a helper T-cell, and the enhancing effect for inducing CTLs.
The character for inducing CTLs specific to the antigen peptide (SEQ ID No. 1 or SEQ ID No. 5) by vaccine a was evaluated by measuring whether IFNγ can be produced upon stimulation of splenocytes from the mouse with the peptide. In addition, the character for exerting in vivo adjuvant activity by the compound in Example 3 or the compound in Reference example 14 was evaluated by comparing the number of CTLs induced by vaccine a and the number of CTLs induced by the vaccine prepared by adding the compound prepared in Example 3 or the compound in Reference example 14 to vaccine a, and checking presence or absence of the increase on the number.
0.312 g of sodium dihydrogen phosphate dihydrate was dissolved in 80 g of water for injection. 14.0 g of ethyl oleate, 14.0 g of octyldodecyl myristate, 2.0 g of sorbitan monooleate, 2.8 g of glyceryl monooleate, 0.4 g of polyoxyethylene hydrogenated castor oil 20, and 0.4 g of glycerin were mixed. 2.354 mL of the mixture (corresponding to 2.077 g) was put into a test tube, and 0.396 mL of the aqueous sodium dihydrogen phosphate (corresponding to 0.396 g) was gradually added into the test tube which was being stirred with a mixer (ULTRA-TURRAX T10, IKA, or Touch Mixer MT-51, Yamato Scientific) to emulsify the mixture in the test tube. The obtained emulsion was referred to as preliminary emulsified composition. The amount of the preparation was adjusted as appropriate.
Compound of formula 4 and Peptide SEQ ID No. 3 were dissolved in DMSO, and then diluted with water for injection to concentrations of Compound of formula 4 of 3 mg/ml and Peptide of SEQ ID No. 3 of 2.25 mg/ml. The diluted peptide solution was mixed and emulsified with an equal volume of the above preliminary emulsified composition to prepare vaccine a. Vaccine a was injected to mice intradermally at the tail base area in an amount for administering 300 μg of Compound of formula 4 per body and 225 μg of Peptide SEQ ID No. 3 per body. Or, in the step of preparing vaccine a, the compound prepared in Example 3 was added to the diluted peptide solution to prepare a vaccine, and the prepared vaccine was injected to mice intradermally at the tail base area in an amount for administering 300 μg of Compound of formula 4 per body, 225 μg of Peptide SEQ ID No. 3 per body, and 32.5 ng of the compound prepared in Example 3 per body. […]

[3] = Example 3 32.5 ng per body versus Reference example 14 17.5 ng per body, added to vaccine

CCCCOc1nc(N)c2[nH]c(=O)n(Cc3ccc(CN(C)CCOCCOCCOCCOCCO)nc3)c2n1 [Example 2, 6-amino-2-butoxy-9-{[6-(16-hydroxy-2-methyl-5,8,11,14-tetraoxa-2-azahexadecan-1-yl)pyridin-3-yl]methyl}-7,9-dihydro-8H-purin-8-one-trifluoroacetate]
increase of the CTL counts (Peptide SEQ ID No. 5) compared with Reference example 12 ([1]; Example 2 325 ng per body versus Reference example 12 225 ng per body, added to vaccine): more | CTL counts responsive to Peptide SEQ ID No. 5 [1]: more

CCCCOc1nc(N)c2[nH]c(=O)n(Cc3ccc(CN(C)CCOCCOCCOCCOCCO)cc3)c2n1 [Example 3, 6-amino-2-butoxy-9-{[4-(16-hydroxy-2-methyl-5,8,11,14-tetraoxa-2-azahexadecan-1-yl)phenyl]methyl}-7,9-dihydro-8H-purin-8-one]
increase of the CTL counts (Peptide SEQ ID No. 1) compared with Reference example 14 [2, 3]: more | increase of the CTL counts (Peptide SEQ ID No. 5) compared with Reference example 14 [2, 3]: more | CTL counts responsive to Peptide SEQ ID No. 1 (IFNγ-producing cells) [2]: increased | CTL counts responsive to Peptide SEQ ID No. 5 (IFNγ-producing cells) [2]: increased

CCCCOc1nc(N)c2[nH]c(=O)n(Cc3ccc(CNC)nc3)c2n1 [Reference example 12, reference compound]
CTL counts responsive to Peptide SEQ ID No. 5 [1]: more

CCCCOc1nc(N)c2[nH]c(=O)n(Cc3ccc(CNC)cc3)c2n1 [Reference example 14, reference compound]
CTL counts responsive to Peptide SEQ ID No. 1 (IFNγ-producing cells) [2]: increased | CTL counts responsive to Peptide SEQ ID No. 5 (IFNγ-producing cells) [2]: increased
